Laboratory results as given in paper PMC8736263 (European journal of pharmacology, 2021).
pKi: −log10 of the molar value.

Legend:
sigma-1 receptor = sigma-1 receptor (Rattus norvegicus, UniProt Q9R0C9); experiment: radioligand competition with [3H]-; assay type: binding
[1] = target: T1, sigma-2 receptor/transmembrane protein 97 (TMEM97) (Rattus norvegicus, UniProt Q5U3Y7); experiment: radioligand competition with [3H]DTG plus […]; assay type: binding
T1 sequence (Q5U3Y7 1-176): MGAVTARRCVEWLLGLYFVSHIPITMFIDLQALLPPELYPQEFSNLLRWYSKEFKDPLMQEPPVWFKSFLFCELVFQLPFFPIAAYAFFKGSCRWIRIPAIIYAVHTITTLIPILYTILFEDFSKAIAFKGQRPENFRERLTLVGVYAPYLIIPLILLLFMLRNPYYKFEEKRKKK

Chain of sigma-1 receptor (Q9R0C9 whole entry): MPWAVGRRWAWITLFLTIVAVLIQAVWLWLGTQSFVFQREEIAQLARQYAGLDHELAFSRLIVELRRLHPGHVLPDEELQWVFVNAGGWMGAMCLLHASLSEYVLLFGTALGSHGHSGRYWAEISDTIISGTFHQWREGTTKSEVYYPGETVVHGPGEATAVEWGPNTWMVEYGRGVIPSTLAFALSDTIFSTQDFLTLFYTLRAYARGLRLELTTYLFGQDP

## O=c1oc2cc(NC(=S)Nc3ccc4c(c3)oc(=O)n4CCCCN3CCN(c4ccc(F)cc4)CC3)ccc2n1CCCCN1CCN(c2ccc(F)cc2)CC1 [MAM03055A, 1,3-bis(3-(4-(4-(4-fluorophenyl)piperazin-1-yl)butyl)-2-oxo-2,3-dihydrobenzo[d]oxazol-6-yl)thiourea]
sigma-1 receptor
  pKi: 5.47
[1]
  pKi: 7.25
